Laboratory results taken from patent US20140096967A1, “SALT-TOLERANT ANIONIC SURFACTANT COMPOSITIONS FOR ENHANCED OIL RECOVERY (EOR) APPLICATIONS” (Board of Regents, The University of Texas System, priority 2012, published 2014).
Where two headings read alike, the source gives them in different places. Marks after values point to notes of the source that are not given here.

Experiments:
[1] = conventional sodium alkylsulfates; data from O'Lenick; cited from earlier work
[2] = data from Mukerjee et al. (1971), cited from earlier work
[3] = Static adsorption test on disaggregated Berea sandstone core particles; type: physicochemical; settings: 10,000 mg/L NaCl, LSR of 40, 12 hrs. equilibration at 25° C. (FIG. 19)
Excerpt: Static Adsorption Tests. A static adsorption test was used for measuring surfactant adsorption at solid-water interfaces. The procedures were adopted from the study by Hanna et al. (1977). The adsorbents used for static adsorption tests were particles disaggregated from a Berea sandstone core and sieved through a 60 mesh screen ([…]). The use of 60 mesh screen is based on the consideration that a wider and thus more representative range of particle sizes could be included. The adsorbent grains were heated in the oven overnight and cooled in a desiccator over Drierite™ before use. The surfactant concentration was measured by Total Organic Carbon (TOC) method, which represents the amount of total carbon in the sample. […] The amount of surfactant adsorbed was determined by measuring different concentrations in the solution before and after contact with the adsorbents,
Where Γ (mg/g) is the surfactant adsorption density on the adsorbents; Co and C (mg/L) are surfactant concentrations before and after adsorption tests; V (ml) is the volume of surfactant solution used in the test, and M (gram) is the mass of the adsorbents used in the test. A dimensionless quantity θ can be defined as follows: […]
Equilibrium Adsorption Time. To ensure true equilibrium adsorption, the progression of 16-4-16 adsorption level with time was recorded to identify a suitable duration for equilibration. […]

| maximum adsorption density, trend among surfactants [3] | Structure (SMILES) | Krafft Point [1] | CMC ([2]; 30° C.) | CMC ([2]; 40° C.) | CMC ([2]; 60° C.) |
| --- | --- | --- | --- | --- | --- |
| – | CCCCCCCCCCCCOS(=O)(=O)[O-].[Na+] [C12—SO4^− Na^+] | 16* ° C. | 8230** 10^−3 mmol/L | 8600** 10^−3 mmol/L | 10160** 10^−3 mmol/L |
| – | CCCCCCCCCCCCCCOS(=O)(=O)[O-].[Na+] [C14—SO4^− Na^+] | 28* ° C. | 2080** 10^−3 mmol/L | 2210** 10^−3 mmol/L | 2770** 10^−3 mmol/L |
| 16-4-16<SHS<S13-C | CCCCCCCCCCCCCCCCOS(=O)(=O)[O-].[Na+] [C16—SO4^− Na^+, sodium hexadecyl sulfate] | 45* ° C. | – | 580** 10^−3 mmol/L | – |
